Data published in ChEMBL document CHEMBL1141962, “Angiogenesis inhibitors derived from thalidomide” (2005).

Key:
Assay type in all cases: functional
Settings in all cases: Homo sapiens
HUVEC [1] = test: Inhibitory activity in HUVEC tube formation assay at 100 uM
HUVEC [2] = test: Inhibitory activity in HUVEC tube formation assay at 30 uM
HUVEC [3] = test: Inhibitory activity in HUVEC tube formation assay at 10 uM

| SMILES | inhibition at 100 µM (HUVEC [1]) [%] | inhibition at 30 µM (HUVEC [2]) [%] | inhibition at 10 µM (HUVEC [3]) [%] |
| --- | --- | --- | --- |
| Nc1cccc2c1C(=O)N(C1CCC(=O)NC1=O)C2=O (configuration not stated) [POMALIDOMIDE] | 21 | – | – |
| O=C1CCC(N2C(=O)c3ccccc3C2=O)C(=O)N1 (configuration not stated) [THALIDOMIDE] | 26 | – | – |
| Nc1cccc2c1CN(C1CCC(=O)NC1=O)C2=O (configuration not stated) [LENALIDOMIDE] | 32 | – | – |
| CC(C)c1cccc(C(C)C)c1N1C(=O)c2ccc(O)cc2C1=O | 59 | 41 | 8 |
| O=C1CCC(N2C(=O)c3cccc([N+](=O)[O-])c3C2=O)C(=O)N1 (configuration not stated) | 32 | – | – |
